Holding throughout (assay type): biochemical
In test [1] the target is T1, maltase (rat intestinal α-glucosidase).
T1 construct: gene Mgam; crude phosphate-buffer supernatant of rat intestinal acetone powder (Sigma-Aldrich, labelled EC 3.2.1.48), not purified; maltose-hydrolysing activity of mixed brush-border alpha-glucosidases
Briefly: maltose hydrolysis, released glucose by HPAEC-PAD; Dixon plot. The note with it: maltose 1.25-5 mM, pH 6.9, 37 °C; competitive; crude intestinal extract. An excerpt:
maltose hydrolysis, released glucose by HPAEC-PAD; Dixon plot on maltase (rat intestinal α-glucosidase)

The target is the same in test [2]. Description: maltose hydrolysis, released glucose by HPAEC-PAD. The note with it: 10 mM maltose, phosphate buffer 100 mM pH 6.9, 37 °C, 30 min; crude intestinal extract. An excerpt:
maltose hydrolysis, released glucose by HPAEC-PAD on maltase (rat intestinal α-glucosidase)

The subject of test [3] is T1, maltase (rat intestinal α-glucosidase). Description: maltose hydrolysis, released glucose by HPAEC-PAD; Lineweaver-Burk plot. The note with it: phosphate buffer 100 mM pH 6.9, 37 °C; crude intestinal extract.

≈ marks a conversion by molar mass, not a printed value.

The Ki is the dissociation constant of the complex between target and ligand, obtained from inhibition or displacement. The term IC50 denotes the concentration needed to halve the response being measured. A word on the Km: it is the concentration of substrate that gives half-maximal velocity.

Consider `C[C@H]1O[C@H](O[C@H]2[C@H](O)[C@@H](O)[C@@H](O[C@H]3[C@H](O)[C@@H](O)C(O)O[C@@H]3CO)O[C@@H]2CO)[C@H](O)[C@@H](O)[C@@H]1N[C@H]1C=C(CO)[C@@H](O)[C@H](O)[C@H]1O` (stereo partly drawn) [Acarbose], for which the inhibitory constant (Ki) in test [1] worked out at 70 ng/mL (≈ 0.108 µM). The IC50 in test [2] came out at 150 ± 20 ng/mL (≈ 0.232 µM). `OC[C@H]1O[C@H](O[C@H]2[C@H](O)[C@@H](O)C(O)O[C@@H]2CO)[C@H](O)[C@@H](O)[C@@H]1O` (stereo partly drawn) [maltose]: in test [3], the Km came to 5.8 mM.
